Data as given in PubChem BioAssay AID2305 (GlaxoSmithKline (GSK), 2010).
Several values for one entry are separate records, joined by “and”; a condition that tells them apart may be missing. Equal entries are not always repeated.

What follows are molecules tested on P. falciparum 3D7 growth, pLDH absorbance (assay: P. falciparum 3D7 growth inhibition, dose response, strain 3D7 (AID 2305)).

SMILES	IC50
COc1ccc(NC(=O)c2ccc(-c3cc(NC(=O)c4ccnc(N5CCCC5)c4)ccc3C)s2)cc1N1CCN(C)CC1	0.25 µM
N#Cc1ccc(-c2cnc3ccc(NCCc4cccnc4)nn23)cc1	0.26 µM
CCN1CCC(NCc2ccc(-c3ccc(Cl)s3)cc2)CC1	0.94 µM
COc1ccc(CCN2CC[C@H](Nc3nc(-c4ccc(F)c(F)c4)nc4ccccc34)C2)cc1S(N)(=O)=O	0.79 µM
Cc1ccc(C(=O)NC2CC2)cc1-c1ccc2c(cnn2S(=O)(=O)c2ccc(F)cc2)c1	0.29 µM
O=C(/C=C/c1ccc(Cl)c(Cl)c1)NCCCCCN1CCCC(C(=O)Nc2ccc(Cl)cc2)C1 (stereo not given)	0.85 µM
NC1CCN(Cc2cccc(-c3ccc(-c4nc5ccc(C(F)(F)F)cc5[nH]4)cc3)c2)C1 (stereo not given)	0.7 µM
CC(=O)Nc1ccc(OCCCCCOc2ccc(NC(C)=O)cc2Cl)c(Cl)c1	0.83 µM
O=C(Nc1cccc(-c2cccc(-c3nc4ccc(F)cc4[nH]3)c2)c1)c1ccncc1	0.51 µM
Oc1ccc(Cl)cc1CN1CCC2(CCCN(CC3CCC3)C2)C1 (stereo not given)	0.37 µM
CN1CCN(CCCN(Cc2ccc(-c3cccc(CNC4CCCC4)c3)cc2)C(=O)/C=C/c2ccccc2)CC1	1.33 µM
CCOC(=O)c1ccc(NC(=O)N[C@@H](Cc2ccccc2)C(=O)NC2CCN(Cc3ccc(O)c(OC)c3)C2)cc1 (stereo not given in full)	0.99 µM
CCNc1c2ccc(Cl)cc2nc2ccc(OC)cc12	0.84 µM
Cn1cc(Br)c(-c2cccc(Nc3ccnc4cc(-c5nccs5)ccc34)c2)n1	0.98 µM
O=C(C=Cc1ccccc1C(F)(F)F)NC1CCC(CN2CCC(c3c[nH]c4ccccc34)CC2)CC1 (stereo not given)	0.9 µM and 0.68 µM
COc1ccc2nccc([C@@H](O)CN3CCC(NCc4nc5ccccc5s4)CC3)c2c1	0.93 µM
CC1CCN(c2nc(C(=O)Nc3cccc4c3CCCC4)c(C(C)C)s2)CC1	1.04 µM
CN(C)C(=O)c1ccc(CN(Cc2ccc(OC(C)(C)C)cc2)Cc2ccc3c(c2)OCCO3)cc1	0.83 µM
CCCC(C(=O)OCCNC)(c1ccccc1)c1ccccc1	0.89 µM
COc1ccc2c(NN=Cc3cccnc3)cc(C)nc2c1	0.99 µM
O=c1cc(NCCCNCc2cc3ccccc3s2)[nH]c2ccccc12	1.27 µM
COc1cc2nc(NCCc3ccccc3)nc(N(C)Cc3ccccc3)c2cc1OC	0.83 µM
COc1ccc(NC(=O)N2CCN(CCCCCNC(=O)/C=C/c3ccc(C(F)(F)F)cc3)CC2)cc1Cl	0.86 µM
CCCC(=O)c1cnc2cc(O)ccc2c1Nc1ccccc1C	0.65 µM
CCc1ccc(NC(=O)c2ccc(CN3CCCN(Cc4ccc(C)s4)CC3)cc2)cc1	1.15 µM

SMILES	IC50
Cc1cc(OCc2ccccc2)c(OCc2ccccc2)cc1C(O)CN(C)Cc1ccccc1 (stereo not given)	0.81 µM
COCCN1CCC(N(CC2(O)CCN(c3ccc(C(F)(F)F)cc3)CC2)C(=O)Cn2c(SCc3cccc(F)c3F)cc(=O)c3ccccc32)CC1	0.81 µM
COc1cc(NCCCCNc2ccc(Cl)c(Cl)c2)nc2ccccc12	0.53 µM
O=C(Nc1cccc(-c2cccc(-c3nc4ccc(F)cc4[nH]3)c2)c1)c1csnn1	0.79 µM
CCn1ccc2c3c(N)nc(N)nc3ccc21	0.31 µM
Clc1ccc(OCCC2CCN(CCCCCCCN3CCC(CCOc4ccc(Cl)c(Cl)c4)CC3)CC2)cc1Cl	0.62 µM
CC(C)c1ccc(CN2CCC(NC(=O)c3ccc(-c4cccc(F)c4)s3)CC2)cc1	1.33 µM
O=C(NCC1CCC1)c1cnc(Nc2cccc(Cl)c2)nc1N1CCC1	0.86 µM
Nc1nc(-c2ccccn2)nc(-n2nc(-c3cccc(C(F)(F)F)c3)cc2N)n1	1.04 µM
COc1ccc(-c2cccc(NC(=O)c3ccc(F)cc3)c2)cc1CNC(C)C	1.38 µM
O=C(/C=C/c1ccc(Cl)c(Cl)c1)N1CCC(CN2CCC(c3c[nH]c4cnccc34)CC2)CC1	0.22 µM
O=c1cc(NCCNCc2cccc(-c3ccccc3)c2)[nH]c2ccccc12	1.03 µM
COc1ccc(Cc2c(Cl)nc3nc(N)nc(N)c3c2C)cc1	1.09 µM
CC[C@H]1CN2CC[C@H]1C[C@H]2[C@H](O)c1cc(N2CCC3CCCCC3C2)nc2ccc(OC)cc12 (stereo not given in full)	0.17 µM
CC1(C)CCCN(C(=O)Cc2ccc3c(c2)CCCC3)C1CN1CC=CC1 (stereo not given)	0.72 µM
COc1ccc2ccc(OC)c(CNCCCCCCNCc3c(OC)ccc4ccc(OC)cc34)c2c1	0.7 µM
Clc1ccc(Nc2nc(-c3ccccn3)cs2)nc1	0.77 µM
N#Cc1ccc2c(c1)CCN(CCC1CCC(NC(=O)Nc3ccnc4ccccc34)CC1)C2 (stereo not given)	0.38 µM
COc1cc(F)c2ncc(F)c([C@@H](O)CN3CCC(NCc4cc5c(cn4)OCCO5)CC3)c2c1	0.48 µM
Nc1c2c(nc3ccc(NC(=O)c4ccc([N+](=O)[O-])cc4)cc13)CCCC2	0.24 µM
CC1(C)CC(NC(=O)NC2CCN(Cc3ccccc3)CC2)CC(C)(CNC(=O)NC2CCN(Cc3ccccc3)CC2)C1 (stereo not given)	0.95 µM
O=C(C=Cc1ccc(Cl)c(Cl)c1)NCCCCCN1CCCC(CCCNS(=O)(=O)c2cccc3cccnc23)C1 (stereo not given)	1 µM
Cc1cc2ccc(CNCCc3ccccc3Br)cc2nc1N	0.51 µM
Cn1c(NC(=O)c2ccc(CNC(=O)c3ccc(O)c(-c4ccc(Cl)c(Cl)c4)c3)cc2)nc2ccccc21	0.84 µM
CCc1c[nH]c2c(N3CCCC3=O)cc(C(=O)N[C@@H](Cc3ccccc3)[C@H](O)CNC3CCCCC3)cc12	0.1 µM
